The results in this text go back to patent US8772500B2, “TRPV3 modulators” (AbbVie Inc., priority 2011, dated 2014).

Bounds are passed on as bounds.

Data set [1] can be described thus: In vitro human microsomal stability assay. It counts as in vitro ADME. The note with it: human, 0.5 h, 0.5 μM, pH 7.4. As for the experimental part:
(§1) Test compounds were evaluated for metabolic stability in an in vitro rat microsomal stability assay using rat (Sprague-Dawley, from BD Biosciences) liver microsomes and/or an in vitro human microsomal stability assay using human (Xenotech) liver microsomes. […] Incubations were carried out at 37° C. with a final incubation volume of 135 μL. […] A 1.5 μL aliquot of reduced nicotine adenine disphosphonucleotide (NADPH) (Chem-Impex Int'L Inc., Lot 12532024) was also added to the time-zero plates.

Data set [2] is described as follows: In vitro rat microsomal stability assay. It counts as in vitro ADME, rat (Sprague-Dawley). The note with it: Sprague-Dawley, rat, 0.5 h, 0.5 μM, pH 7.4. As for the experimental part:
as §1

For the compound `OC(c1ccccn1)C1(c2ccc(Cl)c(Cl)c2)CCNCC1` (centres unmarked) [Example 140, [4-(3,4-dichlorophenyl)piperidin-4-yl](pyridin-2-yl)methanol], the “HUMAN MICROSOMAL STABILITY (% REMAINING AFTER 30 MINUTES)” value in data set [1] is above 85%. Moreover, the “RAT MICROSOMAL STABILITY (% REMAINING AFTER 30 MINUTES)” value in data set [2] is recorded as 37%.
On to `OC1CC(c2ccc(C(F)(F)F)cc2)([C@@H](O)c2ccccn2)C1` (mixture of isomers) [Example 199, 3-[(R)-hydroxy(pyridin-2-yl)methyl]-3-[4-(trifluoromethyl)phenyl]-cyclobutanol], for which the “HUMAN MICROSOMAL STABILITY (% REMAINING AFTER 30 MINUTES)” value in data set [1] is on record as above 85%. Further, in data set [2], the “RAT MICROSOMAL STABILITY (% REMAINING AFTER 30 MINUTES)” value is above 85%.
`COc1ccnc(C(O)C2(c3ccc(Cl)c(Cl)c3)CCC2)c1` (centres unmarked) [Example 289, [1-(3,4-dichlorophenyl)cyclobutyl](4-methoxypyridin-2-yl)methanol]: in data set [1], the “HUMAN MICROSOMAL STABILITY (% REMAINING AFTER 30 MINUTES)” value was 4.2%. Further, the “RAT MICROSOMAL STABILITY (% REMAINING AFTER 30 MINUTES)” value in data set [2] was below 0.01%.
As for `OC(c1ccccn1)C1(c2ccccc2OC(F)(F)F)CCNCC1` (centres unmarked) [Example 142, pyridin-2-yl{4-[2-(trifluoromethoxy)phenyl]piperidin-4-yl}methanol], the “HUMAN MICROSOMAL STABILITY (% REMAINING AFTER 30 MINUTES)” value in data set [1] is recorded as above 85%. In addition, the “RAT MICROSOMAL STABILITY (% REMAINING AFTER 30 MINUTES)” value in data set [2] is 37%.
Taken in the same sequence, the figures for `O=C1CC(c2ccnc(C(F)(F)F)c2)(C(O)c2ccccn2)C1` (centres unmarked) [Example 298, 3-[hydroxy(pyridin-2-yl)methyl]-3-[2-(trifluoromethyl)pyridin-4-yl]cyclobutanone] were 80% and 59%.
Regarding `OC(C1CCCc2cccnc21)C1(c2ccc(C(F)(F)F)cc2)CCC1` (single isomer, unassigned) [Example 184, (syn)-5,6,7,8-tetrahydroquinolin-8-yl{1-[4-(trifluoromethyl)phenyl]-cyclobutyl}methanol], the “HUMAN MICROSOMAL STABILITY (% REMAINING AFTER 30 MINUTES)” value in data set [1] was found to be 0.46%. In addition, the “RAT MICROSOMAL STABILITY (% REMAINING AFTER 30 MINUTES)” value in data set [2] is on record as below 0.01%.
With `OC(C1CCCc2cccnc21)C1(c2cccc(C(F)(F)F)c2)CCC1` (single isomer, unassigned) [Example 180, (syn)-5,6,7,8-tetrahydroquinolin-8-yl{1-[3-(trifluoromethyl)phenyl]-cyclobutyl}methanol], in data set [1], the “HUMAN MICROSOMAL STABILITY (% REMAINING AFTER 30 MINUTES)” value is recorded as below 0.01%. For the same compound, the “RAT MICROSOMAL STABILITY (% REMAINING AFTER 30 MINUTES)” value in data set [2] is below 0.01%.
In the case of `OC(c1ccccn1)C1(c2ccc(Cl)c(Cl)c2)COC1` (centres unmarked) [Example 87, [3-(3,4-dichlorophenyl)oxetan-3-yl](pyridin-2-yl)methanol], the “HUMAN MICROSOMAL STABILITY (% REMAINING AFTER 30 MINUTES)” value in data set [1] worked out at 47%. For the same compound, the “RAT MICROSOMAL STABILITY (% REMAINING AFTER 30 MINUTES)” value in data set [2] came out at 8.6%.
With `OC(C1CCc2cccnc21)C1(c2ccc(C(F)(F)F)cc2)CCC1` (stereo not drawn) [Example 173, (anti)-6,7-dihydro-5H-cyclopenta[b]pyridin-7-yl{1-[4-(trifluoromethyl)-phenyl]cyclobutyl}methanol], the “HUMAN MICROSOMAL STABILITY (% REMAINING AFTER 30 MINUTES)” value in data set [1] worked out at 45%. Moreover, the “RAT MICROSOMAL STABILITY (% REMAINING AFTER 30 MINUTES)” value in data set [2] is given as below 0.01%.
Take `OC(C1CCc2cccnc21)C1(c2cccc(OC(F)(F)F)c2)CCC1` (stereo not drawn) [Example 189, (anti)-6,7-dihydro-5H-cyclopenta[b]pyridin-7-yl{1-[3-(trifluoromethoxy)-phenyl]cyclobutyl}methanol]: in data set [1], the “HUMAN MICROSOMAL STABILITY (% REMAINING AFTER 30 MINUTES)” value is on record as 0.65%. Besides, the “RAT MICROSOMAL STABILITY (% REMAINING AFTER 30 MINUTES)” value in data set [2] is on record as below 0.01%.
For the compound `CC(C)(C)OC(=O)N1CCC(c2ccc(C(F)(F)F)cc2)(C(O)c2ccccn2)CC1` (centres unmarked) [Example 156, tert-butyl 4-[hydroxy(pyridin-2-yl)methyl]-4-[4-(trifluoromethyl)phenyl]-piperidine-1-carboxylate], the “HUMAN MICROSOMAL STABILITY (% REMAINING AFTER 30 MINUTES)” value in data set [1] is reported as 26%. In addition, the “RAT MICROSOMAL STABILITY (% REMAINING AFTER 30 MINUTES)” value in data set [2] amounted to 0.08%.
In the case of `O[C@H](c1ncccn1)C1(c2ccc(C(F)(F)F)cc2)CCC1` [Example 41, (S)-pyrimidin-2-yl{1-[4-(trifluoromethyl)phenyl]cyclobutyl}methanol], in data set [1], the “HUMAN MICROSOMAL STABILITY (% REMAINING AFTER 30 MINUTES)” value is 54%. Further, in data set [2], the “RAT MICROSOMAL STABILITY (% REMAINING AFTER 30 MINUTES)” value worked out at 21%.
Turning to `CC1(O)CC(c2ccc(OC(F)(F)F)cc2)(C(O)c2ncccn2)C1` [Example 310, (trans)-3-((S)-hydroxy(pyrimidin-2-yl)methyl)-1-methyl-3-(4-(trifluoromethoxy)phenyl)cyclobutanol], the “HUMAN MICROSOMAL STABILITY (% REMAINING AFTER 30 MINUTES)” value in data set [1] was above 85%. Besides, the “RAT MICROSOMAL STABILITY (% REMAINING AFTER 30 MINUTES)” value in data set [2] is above 85%.
Turning to `COc1ccc(C(O)C2(c3ccc(Cl)c(Cl)c3)CCC2)nc1` (centres unmarked) [Example 287, [1-(3,4-dichlorophenyl)cyclobutyl](5-methoxypyridin-2-yl)methanol], the “HUMAN MICROSOMAL STABILITY (% REMAINING AFTER 30 MINUTES)” value in data set [1] came out at 15%. In data set [2], the “RAT MICROSOMAL STABILITY (% REMAINING AFTER 30 MINUTES)” value is on record as below 0.01%.
For the compound `O=C1CC(c2cc(C(F)(F)F)ccn2)(C(O)c2ccccn2)C1` (centres unmarked) [Example 293, 3-[hydroxy(pyridin-2-yl)methyl]-3-[4-(trifluoromethyl)pyridin-2-yl]cyclobutanone], in data set [1], the “HUMAN MICROSOMAL STABILITY (% REMAINING AFTER 30 MINUTES)” value is recorded as 78%. Further, the “RAT MICROSOMAL STABILITY (% REMAINING AFTER 30 MINUTES)” value in data set [2] is 69%.
Turning to `OC(C1CCc2cccnc21)C1(c2cccc(C(F)(F)F)c2)CCC1` (stereo not drawn) [Example 185, (anti)-6,7-dihydro-5H-cyclopenta[b]pyridin-7-yl{1-[3-(trifluoromethyl)-phenyl]cyclobutyl}methanol], the “HUMAN MICROSOMAL STABILITY (% REMAINING AFTER 30 MINUTES)” value in data set [1] turned out to be 0.39%. Besides, in data set [2], the “RAT MICROSOMAL STABILITY (% REMAINING AFTER 30 MINUTES)” value is reported as below 0.01%.
For the compound `OC(c1ccccn1)C1(C2(O)CCOC2)CCC1` (centres unmarked) [Example 246, 3-{1-[hydroxy(pyridin-2-yl)methyl]cyclobutyl}tetrahydrofuran-3-ol], the “HUMAN MICROSOMAL STABILITY (% REMAINING AFTER 30 MINUTES)” value in data set [1] came out at 71%. The “RAT MICROSOMAL STABILITY (% REMAINING AFTER 30 MINUTES)” value in data set [2] was 59%.
Take `OC(c1ccccn1)C1(c2ccncc2)CCC1` (centres unmarked) [Example 21, pyridin-2-yl(1-pyridin-4-ylcyclobutyl)methanol]: the “HUMAN MICROSOMAL STABILITY (% REMAINING AFTER 30 MINUTES)” value in data set [1] is given as 71%. The “RAT MICROSOMAL STABILITY (% REMAINING AFTER 30 MINUTES)” value in data set [2] was 52%.
Consider `Nc1cccnc1C(O)C1(c2ccc(OC(F)(F)F)cc2)CCC1` (centres unmarked) [Example 121, (3-aminopyridin-2-yl){1-[4-(trifluoromethoxy)phenyl]cyclobutyl}methanol], for which, in data set [1], the “HUMAN MICROSOMAL STABILITY (% REMAINING AFTER 30 MINUTES)” value amounted to 41%. Besides, in data set [2], the “RAT MICROSOMAL STABILITY (% REMAINING AFTER 30 MINUTES)” value was 0.18%.
Taken in the same sequence, the figures for `OC(C1CCc2cccnc21)C1(c2ccc(OC(F)(F)F)cc2)CCC1` (stereo not drawn) [Example 175, (anti)-6,7-dihydro-5H-cyclopenta[b]pyridin-7-yl{1-[4-(trifluoromethoxy)-phenyl]cyclobutyl}methanol] were 29% and below 0.01%.
Regarding `OC(C1CCc2cccnc21)C1(c2ccc(F)c(F)c2)CCC1` (stereo not drawn) [Example 171, (anti)-[1-(3,4-difluorophenyl)cyclobutyl][6,7-dihydro-5H-cyclopenta[b]-pyridin-7-yl]methanol], in data set [1], the “HUMAN MICROSOMAL STABILITY (% REMAINING AFTER 30 MINUTES)” value is listed as 2.7%. Further, the “RAT MICROSOMAL STABILITY (% REMAINING AFTER 30 MINUTES)” value in data set [2] is below 0.01%.
Taken in the same sequence, the figures for `OC(c1ccccn1)C1(c2ccccc2F)CCCO1` (centres unmarked) [Example 102] were 45% and 0.55%.
